Source: patent publication US11292803B2, “Bioreducible N-oxide-based probes for imaging of hypoxia” (THE BOARD OF TRUSTEES OF THE UNIVERSITY OF ILLINOIS, priority 2018, dated 2022)

Assays:
[1] = tested on: CYP450-rich rat liver microsomes
Method: FIG. 4. […] (a) Representative PA image (770 nm) of reaction mixtures incubated under normoxic or hypoxic conditions for 2 h, then quenched with an equal volume of acetonitrile. Dashed lines indicate positioning of FEP tubes. (b) Change in PA signal (770 nm) produced after 2 h incubation of HyP-1 (10 μM) with rat liver microsomes (RLM) (200 μg/mL) and NADPH (50 μM) in normoxic and hypoxic conditions (n=3). (c) Ratiometric fluorescence turn-on after 2 h incubation of HyP-1 (2 μM) with RLM ([…]) and NADPH (50 μM) in normoxic or hypoxic conditions (n=3). (d) Normalized fluorescent turn-on after 1 h hypoxic incubation of HyP-1 (2 μM) with RLM (100 μg/mL) and NADPH (50 μM) under various conditions. Statistical significance represents a comparison to the hypoxic control (n=6). Results with error bars are represented as mean±SD. **p<0.01, ***p<0.001, ****p<0.0001.
The responsiveness of HyP-1 to hypoxia was first evaluated in vitro via fluorescence by incubating HyP-1 with CYP450-rich rat liver microsomes under atmospheric (normoxic) and oxygen-deprived (hypoxic) conditions. […] The PA response of HyP-1 under identical conditions was evaluated by quenching the reaction mixtures with an equal volume of acetonitrile and transferring the solutions into fluorinated ethylene propylene (FEP) tubes, which were inserted into the centre of a 2 cm thick agarose-based tissue-mimicking phantom.
For hypoxic assays only, cuvettes were sealed with septa, then evacuated and filled with N2 (×3) prior to use. Potassium phosphate buffer (0.1 M, pH 7.4) and NADPH (0.5 mM) were degassed with N2 for 30 minutes. For all assays, phosphate buffer (889 μL) rat liver microsomes (200 μg/mL) and HyP-1 (1 μL, 2 mM in DMSO) were added to the cuvette and pre-incubated at 37° C. for 5 minutes. NADPH (100 μL) was added and incubation continued with fluorescence spectra acquisition occurring at the indicated time points. Spectra were acquired according to the following parameters: λex=672, emission range=685-800 nm and λex=750, emission range=760-900 nm. For BIPY and DPI experiments, the compounds were added from stock solutions (1 M BIPY in DMSO and 50 mM DPI in deionized water) following the 5 minute preincubation, and the buffer volume was adjusted such that the total volume in the cuvette was equal to 1 mL. Deactivated microsomes were prepared by heating in a 45° C. water bath for 30 minutes.

[2] = pH dependence of absorbance and emission spectra; type: physicochemical; settings: buffers pH 4.8 to 12.0
Method: FIG. 13. (a) Absorbance and (b) fluorescence spectra of HyP-1 (2 μM) in 20 mM BRB buffers containing 50% v/v EtOH (pH range 4.8-12.0).
FIG. 14. (a) Absorbance and (b) fluorescence spectra of red-HyP-1 (2 μM) in 20 mM BRB buffers containing 50% v/v EtOH (pH range 4.8-12.0).
(§1) In addition to Fe(II), the response of HyP-1 to a variety of alkali, alkaline earth and transition metals was also determined. […] To further evaluate the stability of HyP-1, a 10 μM solution of the probe was exposed to ambient light and temperature for up to 5 days. Additionally, a 10 μM solution of HyP-1 supplemented with human plasma was incubated at 37° C. for 3 hours. […] As mentioned previously, a major limitation of 2-nitroimidazole-based hypoxia probes is their susceptibility to oxygen-independent reduction via two-electron processes, such as by bacterial nitroreductases. […] Finally, the photostability of both HyP-1 and red-HyP-1 was evaluated via continuous PA image acquisition at 770 nm over the course of 1 hour.
0.1 M potassium phosphate buffer (pH 7.4) was prepared by combining stock solutions of KH2PO4 (1 M, 0.990 mL) and K2HPO4 (1 M, 4.010 mL) and diluting to a final volume of 50 mL. […] Fine adjustments to pH were made via addition of 0.1 M HCl or 0.1 M NaOH. pH values were determined using a Mettler-Toledo SevenCompact pH meter calibrated using pH 4.0, 7.0 and 10.0 standard buffers at 25° C.

[3] = Photostability under continuous PA image acquisition; type: physicochemical; settings: 770 nm, 1 hour
Method: FIG. 16. PA signal (770 nm) at the indicated time points of HyP-1 (dots) and red-HyP-1 (squares) solutions (10 μM in 0.1 M potassium phosphate buffer with 50% v/v EtOH) produced upon continuous image acquisition over the course of 1 h. Reported values represent mean PA signal observed after subtracting background signal produced from tissue-mimicking phantom.
as §1

SMILES	emission maximum ([1]; authentic solution, as RLM reaction mixture (aqueous buffer)) [nm]	pH dependence of absorbance and emission spectra [2]	PA intensity during continuous acquisition (photostability) [3]	conversion by heat-inactivated rat liver microsomes [1]
CCN(CC)c1ccc(-c2cc(-c3ccccc3)c3n2[B-](F)(F)[N+]2=C(c4ccc(OC)cc4)C=C(c4ccccc4)C2=N3)cc1 [Red-HyP-1, 4-(5,5-difluoro-7-(4-methoxyphenyl)-1,9-diphenyl-5H-5λ^4,6λ^4-dipyrrolo[1,2-c:2′,1′-f][1,3,5,2]triazaborinin-3-yl)-N,N-diethylaniline]	785	no significant pH dependence	remained unchanged	–
CC[N+]([O-])(CC)c1ccc(-c2cc(-c3ccccc3)c3n2[B-](F)(F)[N+]2=C(c4ccc(OC)cc4)C=C(c4ccccc4)C2=N3)cc1 [HyP-1, 4-(5,5-difluoro-7-(4-methoxyphenyl)-1,9-diphenyl-5H-5λ^4,6λ^4-dipyrrolo[1,2-c:2′,1′-f][1,3,5,2]triazaborinin-3-yl)-N,N-diethylaniline oxide]	–	no significant pH dependence	remained unchanged	converted to red-HyP-1
